Data as given in PMC9855884, “Glycosylated Lipopeptides—Synthesis and Evaluation of Antimicrobial Activity and Cytotoxicity” (Biomolecules, 2023).
Values after ≈ are worked out from the molar mass of the structure shown. Values joined by “and” are separate entries in the source; they are usually repeats but may differ in a detail not shown here. Identical values can stand only once. Marks after values point to notes of the source that are not given here. Where a SMILES comes first, the peptide text is derived from it. The star is where a group is joined. Myristoyl = CCCCCCCCCCCCCC(=O)*

What was measured:
[1] = system: K. aerogenes ATCC 13048; settings: planktonic cells, analyses performed in the previous study; cited from earlier work
Excerpt: Table 2 Antimicrobial activity (MIC [µg/mL]) of lipopeptides 1–18 against planktonic cells. | column: K. aerogenes ATCC 13048

[2] = system: human red blood cells (RBCs); settings: cited from earlier work
[3] = system: K. pneumoniae ATCC 700603; settings: planktonic cells, analyses performed in the previous study; cited from earlier work
Excerpt: Table 2 Antimicrobial activity (MIC [µg/mL]) of lipopeptides 1–18 against planktonic cells. | column: K. pneumoniae ATCC 700603

[4] = system: P. aeruginosa ATCC 9027; settings: planktonic cells, analyses performed in the previous study; cited from earlier work
Excerpt: Table 2 Antimicrobial activity (MIC [µg/mL]) of lipopeptides 1–18 against planktonic cells. | column: P. aeruginosa ATCC 9027

[5] = MTT assay, cytotoxicity; format: cell-based, human; settings: HaCaT, 24 h incubation at 37 °C, 0.5–500 μg/mL, six replicates per concentration, repeated at least twice
Protocol: To evaluate the cytotoxicity of the test peptides (IC50), the classic MTT assay on 96-well plates was performed for human keratinocytes (HaCaT) which were acquired from the ATCC. The assay was based on colorimetric determination of the cell metabolic activity where the color intensity reflected the number of live cells that could be measured spectrophotometrically. The cell line was cultured in a Dulbecco’s modified Eagle Medium (Invitrogen) supplemented with 10% fetal bovine serum (v/v), 100 units/mL of penicillin, 100 μg/mL of streptomycin, and 2 mM L-glutamine and was kept at 37 °C in a humidified 5% CO2 incubator. Briefly, a day after plating of 500 cells per well, a series of concentrations (0.5–500 μg/mL) of the test compounds were applied. DMSO was added to the control cells at a final concentration of 1.0% (v/v), which was related to the maximum concentration of the solvent compounds used in the experiment. After 24 h of incubation at 37 °C (humidified 5% CO2 incubator) with the peptides, a medium containing 1 mg/mL of MTT was added to the wells up to a final concentration of 0.5 mg/mL. Subsequently, the plates were incubated at 37 °C for 4 h. Then, the medium was aspirated, and the formazan product was solubilized with DMSO. The background absorbance at 630 nm was subtracted from that at 570 nm for each well (Epoch, BioTek Instruments, Winooski, VT, USA). Six replicates were conducted for each concentration. All experiments were repeated at least twice and the resulting IC50 values were calculated with a GraFit 7 software (v. 7.0, Erithacus, Berkley, CA, USA).
The selectivity indexes were calculated for all the strains as IC50/MIC. According to IC50, in most cases, glycosylation caused only a slight decrease in toxicity. However, in contrast with SI calculated for HC50, the differences between USCLs and gUSCLs are not so distinct. […] Moreover, toxicity of USCLs and gUSCLs is high and exceeds their antimicrobial activity. The lipopetides were not selective against Gram-negative strains (K. pneumoniae, A. baumannii, P. aeruginosa, K. aerogenes) over human cells. A few USCLs were selective (SI > 1) against E. faecium and S. aureus with SI up to 1.87; and some gUSCLs were selective against E. faecium but not against S. aureus, with SI between 0.63 and 1.73. […] In this case, SI of gUSCLs was noticeably […] than that of corresponding parent USCLs (2.07, 1.99, 2.67 vs. 2.53, 2.36, 3.46, respectively). Selectivity indexes were plotted against adjusted retention time (Figures S15–S21). A moderate linear correlation was found in USCLs and K. pneumoniae, C. glabrata, and gUSCLs and K. pneumoniae, K. aerogenes (R^2 between 0.6064 and 0.6481). A relatively high linear correlation was obtained for USCLs and K. aerogenes (R^2 of 0.8214) and also for gUSCLs and C. glabrata (R^2 of 0.9223).

[6] = Determination of peptide hydrophobicity with RP-HPLC (adjusted retention time); format: physicochemical; settings: RP-HPLC as measure of hydrophobicity; Waters X-Bridge Shield RP-18 3.0 × 100 mm, 3.5 μm; linear 20–80% acetonitrile in water over 30 min, 0.1% TFA; 0.5 mL/min; 25.0 °C; peptide 1 g/L in water (0.1% TFA); UV 214 nm; triplicate
Protocol: To determine peptide hydrophobicity, a Waters Alliance e2695 system with a Waters 2998 PDA Detector was used. All analyses were carried out on a Waters X-Bridge Shield RP-18 column (3.0 × 100 mm, 3.5 μm particle size, 130 Å pore size). The peptides were dissolved in water (0.1% TFA, v/v) up to a concentration of 1 g/L. UV detection at 214 nm was used, and samples (10 μL) were eluted with a linear 20–80% acetonitrile gradient in deionized water over 30 min at 25.0 ± 0.1 °C. The mobile phase flow rate was 0.5 mL/min. Both eluents contained 0.1% (v/v) of TFA. Each peptide sample was analyzed in triplicate. Maximum standard deviation and coefficient of variation were 0.046 and 0.23%, respectively.
After synthesis and purification, all the products were analyzed with MS and HPLC to confirm purity and identity of the compounds. […] The chromatographic analyses were performed with RP-HPLC; retention time refers to hydrophobicity of the lipopeptide.

[7] = system: S. aureus ATCC 33591; settings: planktonic cells, analyses performed in the previous study; cited from earlier work
Excerpt: Table 2 Antimicrobial activity (MIC [µg/mL]) of lipopeptides 1–18 against planktonic cells. | column: S. aureus ATCC 33591

[8] = system: A. baumannii ATCC BAA 1605; settings: planktonic cells, analyses performed in the previous study; cited from earlier work
Excerpt: Table 2 Antimicrobial activity (MIC [µg/mL]) of lipopeptides 1–18 against planktonic cells. | column: A. baumannii ATCC BAA 1605

[9] = system: C. glabrata ATCC 15126; format: cell-based, Candida glabrata; settings: ATCC 15126, 24 h
Protocol: The Acinetobacter baumannii ATCC BAA-1605, Enterococcus faecium ATCC 700221, Klebsiella aerogenes ATCC 13048, Klebsiella pneumoniae ATCC 700603, Pseudomonas aeruginosa ATCC 9027, Staphylococcus aureus ATCC 33591, Candida glabrata ATCC 15126, strains were acquired from the American Type Culture Collection (ATCC). All the strains were stored at −80 °C in Roti-Store cryo vials and were transferred into fresh Mueller–Hinton broth (MHB, Becton Dickinson, Warsaw, Poland) for bacteria or RPMI-1640 (Sigma-Aldrich, Steinheim, Germany) for fungi before the tests and incubated for 24 h at 37 °C. Then, the cultures were seeded on the Mueller–Hinton agar (BioMaxima, Lublin, Poland) or Sabouraud dextrose agar (SDA, BioMaxima, Lublin, Poland) plates, respectively, and incubated as just mentioned. These agar cultures were used for further microbiological assays. Cell densities for all assays were adjusted spectrophotometrically (Multiskan GO Microplate Spectrophotometer, Thermo Fisher Scientific, Vantaa, Finland) at 600 and 530 nm for bacteria and fungi, respectively.
The MICs were determined using a broth microdilution method according to the Clinical and Laboratory Standard Institute guidelines. For this purpose, initial inoculums of bacteria (5 × 10^5 CFU/mL) in MHB and yeasts (2 × 10^3 CFU/mL) in RPMI-1640 with 2% D-glucose were exposed to the ranging concentration of lipopeptides (1–512 μg/mL) and incubated at 37 °C for 18 h and 24 h, respectively. The experiments were conducted on 96-well microtiter polystyrene plates (Kartell, Italy). The growth was assessed visually after incubation and the MIC was assumed as the lowest peptide concentration at which a noticeable growth of microorganisms was inhibited. All experiments were conducted in triplicate.

[10] = system: E. faecium ATCC 700221; settings: planktonic cells, analyses performed in the previous study; cited from earlier work
Excerpt: However, enhanced activity with elongation of the hydrocarbon chain length in fatty acid residue and the change of serine position to 2 or 3 could be seen. […] Generally, the lo ...

[11] = system: S. aureus biofilm; parameters: method as in PMID 33804887; settings: S. aureus ATCC 33591 biofilm; previous studies; cited from earlier work
[12] = system: A. baumannii biofilm; parameters: method as in PMID 33804887; settings: A. baumannii biofilm (Gram-negative strains); previous studies; cited from earlier work
[13] = system: K. pneumoniae biofilm; parameters: method as in PMID 33804887; settings: K. pneumoniae biofilm (Gram-negative strains); previous studies; cited from earlier work
[14] = system: P. aeruginosa biofilm; parameters: method as in PMID 33804887; settings: P. aeruginosa biofilm (Gram-negative strains); previous studies; cited from earlier work

Row | Molecule | MIC [1] | HC50 (hemolytic activity) [2] [µg/mL] | MIC [3] | MIC [4] | IC50 [5] [µg/mL] | Adjusted Retention Time [6] [min] | MIC [7] | MIC [8] | MIC [9] [µg/mL] | MIC [10] | MBEC [11] [µg/mL] | MBEC [12] [µg/mL] | MBEC [13] [µg/mL] | MBEC [14] [µg/mL]
1 | CCCCCCCCCCCCCC(=O)N[C@@H](CO)C(=O)N[C@@H](CCCNC(=N)N)C(=O)N[C@@H](CCCNC(=N)N)C(N)=O [Peptide 1, C14-SRR-NH2] (Myristoyl-Ser-Arg-Arg-NH2) | 128 * µg/mL | 41.54 ± 1.29 | 128 * µg/mL | 32 * µg/mL | 1.41 ± 0.29 (≈ 2.25 µM) | 16.55 | 16 * µg/mL | 32 * µg/mL | 32 (≈ 51 µM) | 16 µg/mL and 16 * µg/mL | – | – | – | –
2 | C12-RR-NH2 [Peptide C12-RR-NH2] | – | – | – | – | – | – | – | – | – | – | 64 | 512 | 512 | 512
